Experimental data: PMC10583239 (CPT: Pharmacometrics & Systems Pharmacology, 2023)

What was measured:
[1] = radiolabeled pomotrelvir ref 16; cited from earlier work
CYP2B6 [2] = target: T1, CYP2B6 (Homo sapiens, UniProt P20813); test: Metabolic stability in recombinant human CYP2B6 with NADPH; assay type: in vitro ADME; settings: CYP2B6 share of CYP metabolism, scaled by abundance and ISEF
T1 sequence (P20813 1-491): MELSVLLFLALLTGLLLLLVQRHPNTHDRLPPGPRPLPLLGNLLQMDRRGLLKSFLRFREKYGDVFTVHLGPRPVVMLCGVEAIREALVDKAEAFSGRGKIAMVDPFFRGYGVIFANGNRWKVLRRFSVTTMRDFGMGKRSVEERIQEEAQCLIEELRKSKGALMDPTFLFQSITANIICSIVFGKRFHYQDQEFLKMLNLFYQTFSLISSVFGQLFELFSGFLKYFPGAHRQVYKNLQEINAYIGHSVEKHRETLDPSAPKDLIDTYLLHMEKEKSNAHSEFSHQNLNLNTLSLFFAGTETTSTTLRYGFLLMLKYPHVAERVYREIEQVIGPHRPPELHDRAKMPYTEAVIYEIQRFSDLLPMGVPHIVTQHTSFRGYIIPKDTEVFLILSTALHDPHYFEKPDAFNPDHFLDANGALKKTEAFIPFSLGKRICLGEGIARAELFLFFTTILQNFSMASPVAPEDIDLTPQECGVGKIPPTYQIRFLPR

CYP1A2 [3] = target: T2, CYP1A2 (Homo sapiens, UniProt P05177); settings: main text summary
T2 sequence (P05177 1-516): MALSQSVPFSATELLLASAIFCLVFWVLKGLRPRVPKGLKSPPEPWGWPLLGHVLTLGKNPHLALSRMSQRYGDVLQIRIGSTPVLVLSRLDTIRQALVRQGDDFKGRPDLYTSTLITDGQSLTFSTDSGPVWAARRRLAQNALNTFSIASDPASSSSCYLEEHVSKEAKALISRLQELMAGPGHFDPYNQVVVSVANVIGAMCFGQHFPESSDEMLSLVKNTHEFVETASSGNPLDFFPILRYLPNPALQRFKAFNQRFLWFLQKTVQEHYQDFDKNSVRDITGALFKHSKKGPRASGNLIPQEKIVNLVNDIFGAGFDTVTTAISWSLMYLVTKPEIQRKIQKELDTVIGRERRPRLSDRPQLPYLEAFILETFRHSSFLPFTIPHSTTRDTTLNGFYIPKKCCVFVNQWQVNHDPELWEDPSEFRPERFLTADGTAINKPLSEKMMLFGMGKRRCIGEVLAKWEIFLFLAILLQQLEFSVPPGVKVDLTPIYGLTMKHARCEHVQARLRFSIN

recombinant human CYP2E1 = recombinant human CYP2E1 (Homo sapiens, UniProt P05181); test: Metabolic stability in recombinant human CYP2E1 with NADPH; assay type: in vitro ADME; settings: CYP2E1 share of CYP metabolism, scaled by abundance and ISEF
recombinant human CYP3A5 = recombinant human CYP3A5 (Homo sapiens, UniProt P20815); test: Metabolic stability in recombinant human CYP3A5 with NADPH; assay type: in vitro ADME; settings: CYP3A5 share of CYP metabolism, scaled by abundance and ISEF
CYP3A4 [4] = target: T3, CYP3A4 (Homo sapiens, UniProt P08684); test: CYP3A4 inhibition in human liver microsomes; assay type: in vitro ADME
CYP2C19 = CYP2C19 (Homo sapiens, UniProt P33261); test: Metabolic stability in recombinant human CYP2C19 with NADPH; assay type: in vitro ADME; settings: CYP2C19 share of CYP metabolism, scaled by abundance and ISEF
CYP3A4 [5] = target: T3, CYP3A4; test: Metabolic stability in recombinant human CYP3A4 with NADPH; assay type: in vitro ADME; settings: CYP3A4 share of CYP metabolism, scaled by abundance and ISEF
CYP2C9 [6] = target: T4, CYP2C9 (Homo sapiens, UniProt P11712); settings: main text summary
Blood‐to‐plasma ratio = assay type: in vitro ADME; settings: PBPK input
CYP2C9 [7] = target: T4, CYP2C9; test: biochemical
CYP2D6 = CYP2D6 (Homo sapiens, UniProt P10635); test: CYP2D6 inhibition in human liver microsomes; assay type: in vitro ADME
[8] = phase I FIH study ref 7; cited from earlier work
[9] = Human plasma protein binding; assay type: in vitro ADME; settings: human, human plasma
Human plasma protein = Human plasma protein binding; assay type: in vitro ADME; settings: PBPK input
[10] = Human liver microsomal protein binding; assay type: in vitro ADME; settings: human liver microsomes
CYP2B6 [11] = test: in vitro; settings: human
CYP2C8 = target: T5, CYP2C8 (Homo sapiens, UniProt P10632); test: Metabolic stability in recombinant human CYP2C8 with NADPH; assay type: in vitro ADME; settings: CYP2C8 share of CYP metabolism, scaled by abundance and ISEF
T5 sequence (P10632 1-490): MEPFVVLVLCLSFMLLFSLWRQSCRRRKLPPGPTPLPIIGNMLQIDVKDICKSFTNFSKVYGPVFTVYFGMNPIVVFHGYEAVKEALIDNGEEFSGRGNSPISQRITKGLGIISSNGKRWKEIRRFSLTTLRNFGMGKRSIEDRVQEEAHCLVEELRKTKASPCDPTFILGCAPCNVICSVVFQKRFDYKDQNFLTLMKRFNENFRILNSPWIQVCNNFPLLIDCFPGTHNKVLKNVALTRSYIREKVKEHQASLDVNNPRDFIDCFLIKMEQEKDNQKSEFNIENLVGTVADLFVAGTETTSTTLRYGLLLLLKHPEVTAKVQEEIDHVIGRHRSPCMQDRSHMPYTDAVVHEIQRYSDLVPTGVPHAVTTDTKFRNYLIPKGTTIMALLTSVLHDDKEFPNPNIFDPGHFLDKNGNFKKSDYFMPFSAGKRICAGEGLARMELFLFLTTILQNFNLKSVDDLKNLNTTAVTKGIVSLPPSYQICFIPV

[12] = test system: human colon adenocarcinoma clone 2 (Caco‐2); test: Caco‐2 apparent permeability; assay type: in vitro ADME; settings: Caco‐2 cell line
CYP1A2 [13] = target: T2, CYP1A2; test: biochemical

T3 sequence (P08684 whole entry): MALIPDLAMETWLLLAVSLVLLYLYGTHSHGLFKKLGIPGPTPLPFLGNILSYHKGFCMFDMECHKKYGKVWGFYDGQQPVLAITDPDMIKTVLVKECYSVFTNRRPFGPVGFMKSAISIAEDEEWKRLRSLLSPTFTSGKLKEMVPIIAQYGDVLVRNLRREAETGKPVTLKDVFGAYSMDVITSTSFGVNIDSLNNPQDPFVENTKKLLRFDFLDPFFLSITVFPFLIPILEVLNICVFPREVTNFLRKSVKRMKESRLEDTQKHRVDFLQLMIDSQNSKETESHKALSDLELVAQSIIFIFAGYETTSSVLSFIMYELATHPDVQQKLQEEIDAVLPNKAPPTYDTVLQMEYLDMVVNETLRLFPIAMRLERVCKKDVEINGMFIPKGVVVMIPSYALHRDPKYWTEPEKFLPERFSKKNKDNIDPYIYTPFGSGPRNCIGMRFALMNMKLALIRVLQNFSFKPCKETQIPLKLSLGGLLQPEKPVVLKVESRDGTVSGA
T4 sequence (P11712 whole entry): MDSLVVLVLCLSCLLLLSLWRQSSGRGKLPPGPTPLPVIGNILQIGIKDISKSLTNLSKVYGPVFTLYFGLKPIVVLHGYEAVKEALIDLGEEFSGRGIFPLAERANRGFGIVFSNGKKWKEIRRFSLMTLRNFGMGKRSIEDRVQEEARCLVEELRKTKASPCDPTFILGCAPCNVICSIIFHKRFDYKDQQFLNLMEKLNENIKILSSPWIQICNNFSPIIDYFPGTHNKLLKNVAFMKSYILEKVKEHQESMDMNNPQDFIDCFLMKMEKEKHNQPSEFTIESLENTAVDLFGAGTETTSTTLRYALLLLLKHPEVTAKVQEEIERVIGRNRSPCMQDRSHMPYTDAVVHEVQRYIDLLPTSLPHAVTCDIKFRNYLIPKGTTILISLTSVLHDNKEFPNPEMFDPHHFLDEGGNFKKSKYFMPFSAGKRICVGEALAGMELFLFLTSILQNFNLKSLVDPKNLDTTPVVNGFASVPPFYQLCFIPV
Sequence of CYP2D6 (P10635 whole entry): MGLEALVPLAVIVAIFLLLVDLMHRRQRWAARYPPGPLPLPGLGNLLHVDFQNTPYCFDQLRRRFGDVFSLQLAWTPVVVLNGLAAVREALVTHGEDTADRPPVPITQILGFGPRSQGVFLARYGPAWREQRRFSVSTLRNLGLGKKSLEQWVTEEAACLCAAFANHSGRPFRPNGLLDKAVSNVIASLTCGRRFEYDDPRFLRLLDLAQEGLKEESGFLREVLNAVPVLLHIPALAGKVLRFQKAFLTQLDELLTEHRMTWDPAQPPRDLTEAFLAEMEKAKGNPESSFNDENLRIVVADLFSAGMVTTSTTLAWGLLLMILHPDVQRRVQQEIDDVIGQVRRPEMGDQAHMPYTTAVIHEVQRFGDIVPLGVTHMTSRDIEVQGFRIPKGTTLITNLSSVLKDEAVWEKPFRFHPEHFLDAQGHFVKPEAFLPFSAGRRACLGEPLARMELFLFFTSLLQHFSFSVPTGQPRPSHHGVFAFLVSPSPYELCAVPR
Sequence of CYP2C19 (P33261 whole entry): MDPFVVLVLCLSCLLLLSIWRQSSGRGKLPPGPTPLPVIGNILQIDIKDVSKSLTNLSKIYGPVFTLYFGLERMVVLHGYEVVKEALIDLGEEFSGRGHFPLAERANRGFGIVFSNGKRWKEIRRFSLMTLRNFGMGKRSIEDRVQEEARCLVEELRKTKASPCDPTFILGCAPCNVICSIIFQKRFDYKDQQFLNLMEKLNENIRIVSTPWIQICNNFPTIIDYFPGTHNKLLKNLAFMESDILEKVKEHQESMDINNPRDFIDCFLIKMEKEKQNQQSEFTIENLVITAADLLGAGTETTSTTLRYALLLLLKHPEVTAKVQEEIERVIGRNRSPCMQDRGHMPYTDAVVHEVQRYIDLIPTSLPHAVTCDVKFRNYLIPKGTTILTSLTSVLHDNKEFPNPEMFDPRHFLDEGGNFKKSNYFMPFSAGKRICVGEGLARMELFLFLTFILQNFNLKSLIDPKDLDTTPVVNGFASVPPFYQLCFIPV
Sequence of recombinant human CYP3A5 (P20815 whole entry): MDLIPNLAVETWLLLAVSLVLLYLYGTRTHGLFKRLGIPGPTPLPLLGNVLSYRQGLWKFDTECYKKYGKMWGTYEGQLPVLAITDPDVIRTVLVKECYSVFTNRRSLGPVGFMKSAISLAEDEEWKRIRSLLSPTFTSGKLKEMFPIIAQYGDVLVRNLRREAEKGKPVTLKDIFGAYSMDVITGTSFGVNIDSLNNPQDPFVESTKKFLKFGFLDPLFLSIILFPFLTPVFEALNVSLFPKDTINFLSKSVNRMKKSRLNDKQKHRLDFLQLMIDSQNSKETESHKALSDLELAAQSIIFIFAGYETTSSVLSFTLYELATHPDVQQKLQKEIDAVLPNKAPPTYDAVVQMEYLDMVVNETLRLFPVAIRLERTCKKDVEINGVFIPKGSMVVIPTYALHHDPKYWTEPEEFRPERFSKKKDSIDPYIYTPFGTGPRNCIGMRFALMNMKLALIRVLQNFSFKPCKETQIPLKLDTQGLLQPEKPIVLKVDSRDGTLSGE
Sequence of recombinant human CYP2E1 (P05181 whole entry): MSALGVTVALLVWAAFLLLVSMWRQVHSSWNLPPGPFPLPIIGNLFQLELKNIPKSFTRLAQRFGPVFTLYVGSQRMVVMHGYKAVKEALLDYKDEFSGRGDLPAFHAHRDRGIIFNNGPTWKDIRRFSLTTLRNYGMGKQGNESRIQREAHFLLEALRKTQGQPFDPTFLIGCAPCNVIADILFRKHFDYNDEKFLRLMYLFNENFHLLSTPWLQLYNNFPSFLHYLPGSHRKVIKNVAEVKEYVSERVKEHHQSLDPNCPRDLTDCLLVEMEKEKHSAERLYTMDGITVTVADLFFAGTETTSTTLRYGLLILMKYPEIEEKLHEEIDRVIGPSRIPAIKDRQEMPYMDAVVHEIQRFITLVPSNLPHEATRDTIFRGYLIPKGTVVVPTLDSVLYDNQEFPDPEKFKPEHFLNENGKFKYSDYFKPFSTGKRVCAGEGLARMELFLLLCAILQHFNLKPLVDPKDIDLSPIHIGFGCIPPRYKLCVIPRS

Relative Contribution (fm) (CYP2B6 [2]): negligible | inhibitory effect on CYP1A2 in vitro (in words) (CYP1A2 [3]): weak to moderate inhibition | Relative Contribution (fm) (recombinant human CYP2E1): negligible | Relative Contribution (fm) (recombinant human CYP3A5): negligible | Ki (CYP3A4 [4]): 34.7 µM | inhibitory effect on CYP3A4 in vitro (in words) (CYP3A4 [4]; main text summary): time‐dependent inhibition (TDI) | Relative Contribution (fm) (CYP2C19): negligible | Relative Contribution (fm) (CYP3A4 [5]): 88% | inhibitory effect on CYP2C9 in vitro (in words) (CYP2C9 [6]): weak to moderate inhibition | B:P (Blood‐to‐plasma ratio): 0.93 | Ki (CYP2C9 [7]): 12.3 µM | Ki (CYP2D6): 25.4 µM | inhibitory effect on CYP2D6 in vitro (in words) (CYP2D6; main text summary): No inhibitory effect | fraction unbound [9]: 0.044 | Main binding protein (Human plasma protein): HSA | contribution of nonhepatic, presystemic hydrolysis to apparent clearance (following oral dosing, thought to contribute): ~ 50% | CL/F (mean apparent oral clearance) (oral dose of 300 mg administered with food (FIH study)): 33.19 L/h | fraction unbound [10]: 0.85 | EC50 at 72 h (CYP2B6 [11]): 4.84 µM | Relative Contribution (fm) (CYP2C8): 11% | efflux ratio [12]: large | Ki (CYP1A2 [13]): 9.04 µM
Structure (SMILES): N#C[C@H](C[C@@H]1CCCNC1=O)NC(=O)[C@H](CC1CC1)NC(=O)c1cc2cccc(Cl)c2[nH]1 [Pomotrelvir, pomotrelvir]
major route of metabolism and clearance [1]: nonhepatic hydrolysis | urinary excretion of intact drug [1]: Minimal | oral bioavailability [8]: good | tolerability [8]: well tolerated
